# Read-outs that look alike come from different tables or passages of the source.
# Columns and labels:
# [1] = tested on: S. typhimurium TA100; test: Bacterial mutagenicity, plate incorporation assay, TA100; details: mean ± SD
# [2] = tested on: P338 murine leukaemia; type: in vivo, mice
# [3] = tested on: S. typhimurium TA98; test: Bacterial mutagenicity, plate incorporation assay, TA98; details: mean ± SD
# [4] = tested on: AA8 cells; test: Growth inhibition in vitro, AA8; type: cell-based, Chinese hamster; details: Cricetulus griseus, CHO-AA8
# Method: (§1) Representative examples of compounds of the invention were tested for biological activity against tumors. Compounds 1 to 6 and 14 to 21, prepared as described above, were tested for their ability to inhibit growth in vitro of cells of the wild-type murine leukaemia cell line P388, and the cell line AA8 which is derived from Chinese hamster ovary cells. For each compound, the IC50, ie. the concentration of compound which inhibited cell growth in treated cultures to 50% of that of controls, was determined, using means of three determinations. In addition, a hypersensitivity factor was determined by comparing activity of the compounds against AA8 cells to activity against UV4. The latter cell line is deficient in aspects of the excision repair pathway for removing DNA adducts, and is hypersensitive to DNA-alkylating agents, especially interstrand crosslinking agents. Previous work has shown that the ratio of IC50 s determined in the wild-type AA8 and mutant UV4 lines (the hypersensitivity factor HF) is a determinant of the mode of cell killing by alkylating agents (Palmer, B. D. et al, J. Med. Chem., 1990 33 112-121; Wilson, W. R. et al, J. Med. Chem., 1989 32 31-38). Compounds with HFs of ca. 1 are unlikely to kill cells via DNA alkylation events. Compounds which show high HF values are likely to form bulky adducts or cross-links,with the latter being especially likely for compounds showing the highest HF values (>ca. 25) (Wilson et al, op. cit.).
# (§2) Cell lines were maintained in exponential growth phase by subculturing in RPMI 1640 (P338) or Alpha MEM (AA8, UV4) containing 10% fetal calf serum, as previously described (Palmer et al, op.cit.; Baguley, B. C. and Wilson, W. R., Eur. J. Cancer Clin. Oncol., 1987 23 607-613). IC50 values were determined using log-phase cultures in 96-well microculture plates, and were calculated as the nominal drug concentration required to reduce the cell density to 50% of control values, using 8 control cultures on each microplate. For P388 cultures, drug was present throughout the growth period (72 h), and final cell densities were determined using a minor modification of the MTT method of Mossman (Mossman, T., J. Immunol. Methods, 1983 65 55-63). For AA8 and UV4 cultures, drug exposure was terminated after 18 h by washing three times with fresh medium. Cultures were then grown for a further 72 h before determining cell density by staining with methylene blue (Finlay, G. J. et al, Anal. Biochem., 1984 139 272-277).
# [5] = tested on: AA8 and UV4 cells; test: Hypersensitivity factor (AA8/UV4 IC50 ratio); type: cell-based, Chinese hamster; details: ratio of IC50s AA8/UV4
# Method: as §1, §2
# [6] = tested on: S. typhimurium TA102; test: Bacterial mutagenicity, plate incorporation assay, TA102; details: mean ± SD
# [7] = tested on: P388 cells; test: Growth inhibition in vitro, P388 leukaemia; type: cell-based, murine
# Method: as §1, §2
# [8] = P388 cells, 72 h, MTT, read-out: IC50
structure (smiles),measurement,setting,value
"CN1CCN(c2ccc3nc(-c4ccc5nc(-c6ccc(N(C)CCCl)cc6)[nH]c5c4)[nH]c3c2)CC1 [Compound 1, 2-[2-[4-(N-methyl-N-(2-chloroethyl)amino)phenyl]-5-benzimidazolyl]-5-(1-methyl-4-piperazinyl)benzimidazole]","reversion colonies, TA100",[1]; 4 μg/plate,196 ± 23
same,"reversion colonies, TA100",[1]; 10 μg/plate,162 ± 21
same,"reversion colonies, TA100",[1]; 20 μg/plate,172 ± 13
same,"reversion colonies, TA100",[1]; 40 μg/plate,226 ± 23
same,"reversion colonies, TA100",[1]; 80 μg/plate,207 ± 12
same,Optimal dose,[2]; single i.p. dose,30 mg/kg
same,% Increase in lifespan,"[2]; single i.p. dose 24 h after tumour inoculation, at optimal dose (mg/kg: 1 30; 2 30; 3 13.3; 4 3.9; 5 5.9; 6 8.9)",86%
same,"reversion colonies, TA98",[3]; 4 μg/plate,70 ± 3
same,"reversion colonies, TA98",[3]; 10 μg/plate,62 ± 7
same,"reversion colonies, TA98",[3]; 20 μg/plate,67 ± 9
same,"reversion colonies, TA98",[3]; 40 μg/plate,52 ± 7
same,"reversion colonies, TA98","[3]; 80 μg/plate, square brackets: toxicity becoming apparent",65 ± 3
same,IC50,[4],5.75 µM
same,Hypersensitivity factor,[5],14
same,"reversion colonies, TA102",[6]; 4 μg/plate,406 ± 20
same,"reversion colonies, TA102",[6]; 10 μg/plate,417 ± 26
same,"reversion colonies, TA102",[6]; 20 μg/plate,442 ± 62
same,"reversion colonies, TA102","[6]; 40 μg/plate, square brackets: toxicity becoming apparent",442 ± 43
same,IC50,"[7]; Mus musculus, P388, 72 h",0.5 µM
CCN(CCCl)c1ccc(CCCc2nc3ccc(-c4nc5ccc(N6CCN(C)CC6)cc5[nH]4)cc3[nH]2)cc1 [Compound 14],IC50,"[7]; Mus musculus, P388, 72 h",0.74 µM
"CCN(CCCl)c1ccc(CCc2nc3ccc(-c4nc5ccc(N6CCN(C)CC6)cc5[nH]4)cc3[nH]2)cc1 [Compound 15, 2-[2-[2-[4-(N-Ethyl-N-(2-chloroethyl)amino)phenyl]ethyl]-5-benzimidazoyl]-5-(1-methyl-4-piperazinyl)benzimidazole]",IC50,"[7]; Mus musculus, P388, 72 h",0.12 µM
"CCN(CCCl)c1ccc(CCCCCCc2nc3ccc(-c4nc5ccc(N6CCN(C)CC6)cc5[nH]4)cc3[nH]2)cc1 [Compound 16, 2-[2-[6-[4-(N-ethyl-N-(2-chloroethyl)amino)phenyl]hexyl]-5-benzimidazolyl]-5-(1-methyl-4-piperazinyl)benzimidazole]",IC50,"[7]; Mus musculus, P388, 72 h",0.37 µM
"CCN(CCCl)c1ccc(Cc2nc3ccc(-c4nc5ccc(N6CCN(C)CC6)cc5[nH]4)cc3[nH]2)cc1 [Compound 17, 2-[2-[[4-(N-ethyl-N-(2-chloroethyl)amino)phenyl]methyl]-5-benzimidazoyl]-5-(1-methyl-4-piperazinyl)benzimidazole]",IC50,"[7]; Mus musculus, P388, 72 h",0.09 µM
CN1CCN(c2ccc3nc(-c4ccc5nc(CCCc6cccc(N(CCCl)CCCl)c6)[nH]c5c4)[nH]c3c2)CC1 [Compound 18],IC50,[7]; [8],> 1 µM
"CCN(CCCl)c1cccc(CCCc2nc3ccc(-c4nc5ccc(N6CCN(C)CC6)cc5[nH]4)cc3[nH]2)c1 [Compound 19, 2-[2-[3-[3-(N-ethyl-N-(2-chloroethyl)amino)phenyl]propyl]-5-benzimidazolyl]-5-(1-methyl-4-piperazinyl)-benzimidazole]",IC50,"[7]; Mus musculus, P388, 72 h",< 0.06 µM
CN1CCN(c2ccc3nc(-c4ccc5nc(CCCc6ccccc6N(CCCl)CCCl)[nH]c5c4)[nH]c3c2)CC1 [Compound 20],IC50,[7]; [8],0.61 µM
"CCN(CCCl)c1ccccc1CCCc1nc2ccc(-c3nc4ccc(N5CCN(C)CC5)cc4[nH]3)cc2[nH]1 [Compound 21, 2-[2-[3-[2-(N-ethyl-N-(2chloroethyl)amino)phenyl]propyl]-5-benzimidazolyl]-5-(1-methyl-4-piperazinyl)-benzimidazole]",IC50,"[7]; Mus musculus, P388, 72 h",< 0.06 µM
